This is an account of results in patent US6998387B1, “Human appetite control by glucagon-like peptide receptor binding compounds” (Amylin Pharmaceuticals, Inc., priority 1998, dated 2006).

“Also recorded” adds a separate entry of the source. Like-named read-outs stand apart in the source and are kept apart here.

The test system of one data set is healthy male subjects. The experiment in a line: Effect of graded intravenous doses of synthetic human GLP-1 on food intake (Example 1). The settings on record: for Calorie intake / Fluid intake / Food quantity / Meal duration: 16 healthy male subjects, mean, SEM. As for the experimental part:
A randomized, double-blind design was carried out with 16 healthy men aged 23.6±0.5 years. The weight of all subjects was within normal range considering their age, sex, and height. Each subject gave written informed consent for the study.
Four treatments (0, 0.375, 0.75 and 1.5 pmol/kg), separated by at least 7 days, were administered to the 16 subjects. […] An identical standard meal was presented to the subjects on each occasion. The meal consisted of orange juice as an appetizer (480 kcal per 1); ham sandwiches (60 g bread, 10 g butter, 25 g ham 266 kcal per sandwich) and more orange juice and chocolate pudding (172 kcal per 100 g): coffee with cream and sugar (coffee could be sweetened if desired; therefore both cream and sugar were optional @ 12 g cream=20 kcal, 4.5 sugar=18 kcal). No other food or liquid was allowed during the study. At the end of the study, the amount of food eaten and the amount of fluid ingested was measured by absolute weight from which total caloric intake (food and fluid intake) was calculated.
Each subject was free to eat and drink as much as they wished, but the order of food intake had to follow the above schedule. To reduce participant's awareness of the amount of food being provided, food was served in excess.
On the first day of each treatment, each subject ate breakfast, if this was their normal custom; however, no snacks were allowed after 8:00 a.m. […] Infusions were delivered by ambulatory infusion pumps through a teflon catheter inserted into a forearm vein. Participants were able to sit, eat, stand and walk comfortably while receiving infusions. At 60 minutes after the start of the respective infusion, the test meal was presented and each participant was invited to eat and drink as much as they liked.
Beginning at 12:00 noon, the subjects scored their subjective feelings of hunger and fullness at 15 minute intervals throughout the treatments using a visual analogue scale of 0–10 and indicated the scores on a questionnaire. The scales and scores were designed as previously described (Welch I. M. et al. Gut 29:306–311 (1988); Welch I. M. et al. Gastroenterology 89:1293–1297 (1985); Drewe, J. et al. Gastroenterology 102:1654–1659 (1982)). For example, a score of 0 for hunger indicated the subject was not hungry at all, 2 indicated slightly hungry, 5 indicated moderately hungry, 8 indicated very hungry, and 10 indicated absolutely ravenous.
The quantity of food eaten and volume of fluid drunk was measured. The time for each subject to complete their meal was also measured. From these observations, the average rate of food and fluid intake, as well as the calorie intake, could be calculated. In the pre-meal period and after eating, blood was drawn at regular intervals into ethylenediaminetetraacetic acid (EDTA) tubes containing aprotinine (1000 KIU/ml blood) for glucose and hormone determinations.
The peptide was dissolved in 0.9% saline containing 0.5% human serum albumin, and prepared under aseptic conditions. Aliquots of 50 μg/5 ml were stored at −20° C. […] Treatments were delivered in a double-blind fashion.
The amount of food eaten and the amount of fluid drunk, the corresponding energy intake, and the duration of meal consumption were compared between the four by one-way analysis of variance (ANOVA) using the general linear model (GLM) procedure of the SAS software package (SAS Release 6.03. Cary, N C: SAS Institute, 1988). In the event of significant differences, ANOVA was followed by the Newman-Keuls multi-comparison test for pairwise comparisons (Sachs, L. Angewandte Statistik. Berlin, Springer, (1984)). […] Scores for hunger and fullness were compared at the different time points before and after meals between the different treatments using multiple paired t-tests with Bonferroni correction (Sachs, L. Angewandte Statistik. Berlin, Springer, (1984)).

The next data set has as its system obese humans. The conditions noted are these: infusion of GLP-1 over 210 minutes; cited from earlier work.
A short description of data set [1]: Plasma glucose and hormone concentrations during graded GLP-1 infusion (Example 1). In kind it is in vivo, human. The conditions noted are these: healthy male subjects. As to the method:
Glucose concentrations were measured by the hexokinase method. Plasma hormone concentrations of insulin, cholecystokinin, GLP-1 and leptin were measured as depicted in FIG. 1. All hormone concentrations were determined by specific radioimmunoassay systems. For insulin and leptin concentrations commercially available test kits were used. […] GLP-1 was measured as previously described (Schirra, J. et al. Proc. Assoc. Am. Phys. 109(1):84–971 (1997)). The detection limit of the GLP-1 assay was 2 fmol/tube. […] Intra-assay and inter-assay coefficients of variation were 3.4% and 10.4%, respectively.

In a further data set the test system is rats. The settings on record: cited from earlier work.
Data set [2] in a line: Plasma glucose and hormone concentrations during GLP-1 infusion (Example 2). In kind it is in vivo, human. The settings on record: diabetes mellitus type 2. As to the method:
Blood was drawn through the indwelling anticubital cannula into syringes on ice. These contained EDTA (6 μmol/l) and aprotinine (1000 KIU/l). After centrifugation, plasma hormone analyses were kept frozen at −20° C. Plasma glucose was analyzed by the glucose oxidase method. Insulin and glucagon concentrations in plasma were analyzed by commercially available radioimmunoassay kits (Biermann, Bad Nauheim, Germany). Immunoreactive GLP-1 was measured using the specific polyclonal antibody GA 1178 (Affinity Research, Nottingham, UK). Immunoreactivities were extracted from plasma samples on C-18 cartridges using acetonitrile for elution of samples. The detection limit of the assay was 0.25 pmol/l. Intra-and interassay coefficients of variation were 3.8% and 10.9%, respectively.
Differences were considered significant if p was <0.05.

Data set [3] relates to patients with diabetes mellitus type 2. Nature of the data set: Effect of GLP-1 infusion on eating behaviour in diabetes mellitus type 2 (Example 2). As to the method: Twelve male patients were recruited for the study who had diabetes mellitus type 2 for at least one year. Patients were admitted to a Research Unit after given written informed consent and after the experimental protocol had been explained to them. The mean age of the patients was 55±2 years; their mean HbA1C was 8.1±4 and their mean BMi was 29.4±1.2. Seven patients were on oral antidiabetics. The participants were tested on two different days in a placebo-controlled, randomized, double-blind, crossover study. The two test days were separated by at least one week and by no more than three weeks.
On each test day, patients arrived in the Research Unit in the morning, having fasted overnight. A standardized, fixed energy breakfast was then served and it had to be completed before 8:30 a.m. After breakfast, patients were able to read and listen to music. At 11:00 a.m., two venflon catheters were inserted into the anticubital veins of each arm, one for infusion, the other one for blood drawing. […] Infusions were delivered by ambulatory infusion pumps. 60 min after the start of the respective infusion, a test meal was presented and the participants were invited to eat and drink as much as they liked.
Beginning with the infusions, participants scored their subjective feelings of hunger and fullness in 15 min intervals throughout the experiments using visual analogue scales (VAS) of 0–10 with text expressing the most positive and most negative rating anchored at each end. VAS were used to assess hunger, fullness, and prospective food consumption using scales and scores which have previously been designed.
Each subject was free to eat and drink as much as they wished until “comfortably satisfied” of a standard meal which consisted of a) orange juice as an appetizer (480 kcal/l); b) ham sandwiches (60 g, 10 g butter, 25 g ham: 266 kcal/sandwich) with more orange juice or with water; c) strawberry mousse (100 kcal/100 g); d) coffee with cream (coffee could be sweetened with aspartam if desired; both cream and aspartan were optional; 12 g cream=20 kcal). No additional food or fluid was allowed during the study. In addition, the order of food intake had to follow the above schedule. To reduce participants' awareness of the amount of food being provided, food was served in excess. The quantity of food eaten and the quantity of fluid drunk were measured. From these observations, the total energy intake could be calculated. In the pre-meal period and after eating, blood samples were taken in regular intervals for glucose and hormone determinations. Adverse events were assessed by the attending physician through close observation of each patient; in addition, each participant was questioned after each experiment and after they had completed the two tests whether they had experienced any adverse events.
The peptide was dissolved in 0.9% saline solution containing 0.5% human serum albumin and prepared under aseptic conditions by the University of Basel Hospital Pharmacy. Aliquots of 50 μg/5 ml were stored at −20° C. […] The solutions were prepared by a pharmacist who was not involved in the study. The physician in charge of the experiment was therefore not aware of the respective treatment, thereby making it possible to conduct treatments in a double-blind fashion.
The amount of food eaten and the amount of fluid drunk as well as the corresponding energy intake were compared between the two treatments by Wilcoxon Signed Ranks Test using an SAS software package. […] Scores for hunger and fullness were compared by calculating the S score from baseline (0 min) to 60 min of infusion using the Wilcoxon Signed Ranks Test. Differences were considered significant if p was <0.05.

The mark [4] stands for this setting: GLP-1 0.375 pmol/kg/min i.v. infusion.
Where [5] appears, read: GLP-1 0.75 pmol/kg/min i.v. infusion.
The mark [6] stands for this setting: GLP-1 1.5 pmol/kg/min i.v. infusion.
Where [7] appears, read: pre-meal period, significant only for highest dose of GLP-1, healthy male subjects.
[8] abbreviates: GLP-1 1.5 pmol/kg per min i.v. vs saline, diabetes mellitus type 2.
The mark [9] stands for this setting: GLP-1 1.5 pmol/kg per min i.v., 12 patients with diabetes mellitus type 2, mean ± SEM.
Setting [10] is: pre-meal period, baseline vs 60 min of infusion, diabetes mellitus type 2.

For `CC[C@H](C)[C@H](NC(=O)[C@H](Cc1ccccc1)NC(=O)[C@H](CCC(=O)O)NC(=O)[C@H](CCCCN)NC(=O)[C@H](C)NC(=O)[C@H](C)NC(=O)[C@H](CCC(N)=O)NC(=O)CNC(=O)[C@H](CCC(=O)O)NC(=O)[C@H](CC(C)C)NC(=O)[C@H](Cc1ccc(O)cc1)NC(=O)[C@H](CO)NC(=O)[C@H](CO)NC(=O)[C@@H](NC(=O)[C@H](CC(=O)O)NC(=O)[C@H](CO)NC(=O)[C@@H](NC(=O)[C@H](Cc1ccccc1)NC(=O)[C@@H](NC(=O)CNC(=O)[C@H](CCC(=O)O)NC(=O)[C@H](C)NC(=O)[C@@H](N)Cc1c[nH]cn1)[C@@H](C)O)[C@@H](C)O)C(C)C)C(=O)N[C@@H](C)C(=O)N[C@@H](Cc1c[nH]c2ccccc12)C(=O)N[C@@H](CC(C)C)C(=O)N[C@H](C(=O)N[C@@H](CCCCN)C(=O)NCC(=O)N[C@@H](CCCNC(=N)N)C(N)=O)C(C)C` [GLP-1, Glucagon-like peptide-1 (7–36) amide], in the data set on healthy male subjects (setting [4]), the Calorie intake stood at 1520 ± 95 keal, the Fluid intake turned out to be 748 ± 52 mL, the Food quantity is listed as 531 ± 35 and the Meal duration is 35 ± 3 min. In the data set on healthy male subjects (setting [5]), the Calorie intake is on record as 1451 ± 101 keal, the Fluid intake is 689 ± 48 mL, the Food quantity was 516 ± 40 and the Meal duration was found to be 34 ± 3 min. In addition, in the data set on healthy male subjects (setting [6]), the Calorie intake is on record as 1107 ± 84 keal, the Fluid intake was 584 ± 45 mL, the Food quantity stood at 384 ± 34 and the Meal duration stood at 30 ± 3 min. For the same molecule, the “reduction of fluid ingestion” value in the data set on healthy male subjects (GLP-1 i.v. infusion vs control, healthy male subjects) worked out at 18%. Also, the “side effects / adverse reactions” value with healthy male subjects (any infusion (0.375-1.5 pmol/kg per min i.v.), healthy male subjects) is on record as “None of the participants reported any abdominal discomfort or side effects; also recorded: no overt side effects”. In addition, in the data set on healthy male subjects (setting [7]), the “subjective feeling of fullness (visual analogue scale 0–10)” value is “concomitant feeling of fullness; also recorded: early fullness” and the “subjective feeling of hunger (visual analogue scale 0–10)” value is reported as “reduced degree of hunger; also recorded: less hunger”. For the same molecule, the effect on appetite entry in the data set with obese humans is listed as “no effect on appetite”. Also, the leptin levels result in data set [1] (any dose of GLP-1 administered) is “did not change”. For the same molecule, the “blood glucose and plasma insulin concentrations” value in data set [1] (graded i.v. doses of GLP-1 in 5% glucose) is “dose-dependent, short-lasting increase”. For the same molecule, the “plasma GLP-1 concentration” value in data set [1] (highest dose of GLP-1 (1.5 pmol/kg per min) i.v. infusion) is given as “supraphysiological plasma concentrations”. Further, in data set [1] (pre-meal period, any dose of GLP-1), the “plasma CCK concentrations” value is recorded as “did not change”. The “food intake / feeding” value with rats (intracerebroventricular administration, fasted rats) is “reduce food intake; also recorded: inhibited feeding”. For the same molecule, the food intake result in the data set on rats (intraperitoneal application, rats) is “did not have any effect”. Besides, in data set [2] (GLP-1 1.5 pmol/kg per min i.v. vs saline), the glucagon response result is on record as “significantly reduced”. In data set [2] (GLP-1 1.5 pmol/kg per min i.v.), the “plasma concentrations of GLP-1” value is listed as “increased the plasma concentrations of GLP-1”. Also, in data set [2] (GLP-1 1.5 pmol/kg per min i.v., saline 1197±101), the “blood glucose AUC” value was found to be 765 ± 65 mmol·min/L. Moreover, the “insulin AUC” value in data set [2] (GLP-1 1.5 pmol/kg per min i.v., saline 1775±357) is listed as 2920±516 μU×min/L. In data set [3] (setting [8]), the “decrease in calorie intake” value amounted to 27% and the “maximal reduction in food consumption” value amounted to 29%. For the same molecule, in data set [3] (setting [9]), the Calorie intake came to 694 ± 79 kcal, the Fluid intake was determined as 360 ± 60 mL and the “Food quantity” value came out at 268 ± 31 g. Besides, the “side effects / adverse reaction” value in data set [3] (GLP-1 1.5 pmol/kg per min i.v., diabetes mellitus type 2) is “None of the participants reported any abdominal discomfort or side effects”. Also, in data set [3] (setting [10]), the “fullness (VAS 0–10)” value is recorded as “increased feeling of fullness” and the “hunger (VAS 0–10)” value is “reduced degree of hunger”.

On to exendin (9–39) [reference compound], for which the “effect on GLP-1-induced inhibition of feeding” value with rats (GLP-1 injected into the cerebral ventricles of fasted rats) is “blocked”. The food intake result in the data set with rats (exendin (9–39) alone, satiated rats) is “doubled food intake”.
